Source: US10532085B2, “Methods for increasing intracellular activity of Hsp70” (Orphazyme A/S, priority 2010, dated 2020)

Experiments:
NPDA cells = assay: Lysosomal stability in NPDA cells; format: cell-based, Human
Protocol: BMP binds ASM with high affinity and stimulates its ability to hydrolyze sphingomyelin to ceramide and phosphorylcholine. […] In order to test whether ASM is responsible for the lysosome stabilizing effect we treated the cells with desipramine, a well characterized pharmacological ASM inhibitor. […] It should be noted that akin to rHsp70, also rASM localized to the lysosomes.
Sub-confluent cells incubated with 2 μg/ml acridine orange for 15 min at 37° C. were washed, irradiated and analyzed in Hanks balanced salt solution complemented with 3% fetal calf serum. Cells for single cell imaging were selected from 8 pre-defined areas of each well in transmitted light-mode after which the same cells were immediately visualized and exposed to blue light from USH102 100W mercury arc burner (Ushio electric) installed in a U-ULS100HG housing (Olympus) for 20 sec. Fluorescence microscopy was performed on Olympus IX-70 inverted microscope with a LCPlanF1 ×20 objective with NA=0.40. Loss of lysosomal pH gradient was quantified by counting the loss of intense red staining. A more elaborate method for assaying lysosomal integrity was developed to handle the larger lysosomal compartment of the various fibroblasts used in this study. […] The resulting timelapse movies where subsequently analysed by the integrated Zeiss LSM DUO software.

[1] = test system: U-2-OS osteosarcoma cells; assay: Uptake and localization of fluorochrome-labeled recombinant protein; format: cell-based, Human; details: 300 nM rHsp70-AF488, 24 h
Protocol: FIG. 2: Lysosomal Hsp70 stabilizes lysosomal membranes. (a) Representative confocal images of U-2-OS cells incubated with 300 nM rHsp70-AF488 (green) for 24 h, fixed and stained for lysosomal integral membrane protein-1 (LIMP-1; red). For co-localization with other organelle markers see FIG. 3. (b) U-2-OS cells were incubated with 300 nM rHsp70-AF488 for 24 h before quantification of rHsp70-AF488 in membranes (memb.) and supernatant (sup.) obtained by repeated freeze/thaw cycles and centrifugation the light membrane fraction (LMF). […] (c) Representative still images of U-2-OS cells exposed to photo-oxidation (acridine orange and blue light). The loss of lysosomal integrity is visualized by the loss of red and increase in green staining. (d and e) U-2-OS cells were incubated with indicated recombinant proteins (300 nM) for 24 h, and analyzed for lysosomal integrity upon photo-oxidation. When indicated, cells were treated with indicated siRNAs for 48 h prior to the addition of recombinant proteins (e). The values represent means±SD (standard deviation) for three (d) or five (e) independent experiments. Representative immunoblots of indicated proteins from U-2-OS cells left untreated or treated with control or Hsp70 siRNAs are shown on the right. Scale bars: 20 μm (a and c).
FIG. 3: Colocalization of endocytosed rHsp70-AF488 with lysosomes. […]

NPC−/− mice = assay: NPC1 in vivo pilot study: tissue GSLs (fluorescent HPLC)
Protocol: Eight treated (rHSP70) NPC^−/− versus eight control (PBS only) NPC^−/− controls. Mice were treated IP three times per week with either 10 mg/kg of rHSP70 or vehicle alone (PBS) from 3 weeks of age. Three control and three treated mice were sacrificed at 7 or 9 weeks old (i.e. after 4 or 6 weeks of treatment, respectively). Organs were perfused (PBS), weighed and frozen for biochemical and immunohistochemical analysis.
Organs were homogenised without any added buffer and frozen as 10 ul aliquots. Fresh aliquots were reconstituted to 100 ul with PBS prior to biochemical analysis. Protein determination for each aliquot was performed by BCA protein assay. Cholesterol assays were performed using the Amplex Red Cholesterol Assay from Invitrogen^i. Sphingosine was isolated by sphingoid base extraction and analysed by HPLC^i. GSLs were extracted and analysed by fluorescent HPLC^i. All results were standardised for protein content.

[2] = test system: primary fibroblasts from Niemann-Pick Disease type A patient; assay: Lysosomal cross-sectional area in NPDA patient fibroblasts; format: cell-based, Human; details: pulse-chase, added at T=0, measured at 24 h, 48 h, 72 h and 1 week; patient id 83/24; effect reversible
Protocol: FIG. 5: Pulse-Chase experiment. rhHSP70 (recombinant human HSP70) was added to primary fibroblasts from Niemann-Pick Disease type A patient (patient id: 83/24) at T=0, measurements of lysosomal cross-sectional area were performed at 24 h, 48 h, 72 h and 1 week after administration. […] Conclusion: The effect of rhHSP70 is reversible and lasts ca. 1 week.
FIG. 6: Arimoclomol dose-titration experiment. Various concentrations of Arimoclomol (‘Ari’) added for 48 h to primary fibroblasts from Niemann-Pick Disease type A patient (patient id: 83/24). Read-out: lysosomal cross-sectional area.

rHsp70: recombinant (human) heat shock protein 70; in some tests labelled with Alexa Fluor 488
stabilization of lysosomes in NPDA cells (NPDA cells): stabilize the lysosomes | uptake, co-localization and membrane binding [1]: effective uptake of rHsp70, its specific co-localization with late endosomal and lysosomal markers and binding to lysosomal membranes | GSLs in spleen and brain (NPC−/− mice; 7 weeks): reductions in spleen and brain, but are not statistically significant | GSLs in liver (NPC−/− mice; 7 weeks, p<0.05): significant reduction | GSLs in tissues (NPC−/− mice; 9 weeks): no significant differences | fall of total GSL levels in the brain (NPC−/− mice; at 9 weeks, compared with five-fold reduction in control mice): less severe | duration of the effect on lysosomal cross-sectional area [2]: ca. 1 week
